Measurements taken from paper PMC5127042, “A polysaccharide utilization locus from Flavobacterium johnsoniae enables conversion of recalcitrant chitin” (Biotechnology for Biofuels, 2016).

Tests used:
CusDI = target: T1, CusDI (Flavobacterium johnsoniae, UniProt A5FB66); test: isothermal titration calorimetry; assay type: binding; conditions: 20 mM HEPES, 100 mM NaCl, pH 7.0, 25 °C, one-site model
T1 construct: gene Fjoh_4558; residues 33-526, signal peptide removed, N-terminal His tag removed with TEV, E. coli Rosetta(DE3) pLysS
T1 sequence (A5FB66 33-526): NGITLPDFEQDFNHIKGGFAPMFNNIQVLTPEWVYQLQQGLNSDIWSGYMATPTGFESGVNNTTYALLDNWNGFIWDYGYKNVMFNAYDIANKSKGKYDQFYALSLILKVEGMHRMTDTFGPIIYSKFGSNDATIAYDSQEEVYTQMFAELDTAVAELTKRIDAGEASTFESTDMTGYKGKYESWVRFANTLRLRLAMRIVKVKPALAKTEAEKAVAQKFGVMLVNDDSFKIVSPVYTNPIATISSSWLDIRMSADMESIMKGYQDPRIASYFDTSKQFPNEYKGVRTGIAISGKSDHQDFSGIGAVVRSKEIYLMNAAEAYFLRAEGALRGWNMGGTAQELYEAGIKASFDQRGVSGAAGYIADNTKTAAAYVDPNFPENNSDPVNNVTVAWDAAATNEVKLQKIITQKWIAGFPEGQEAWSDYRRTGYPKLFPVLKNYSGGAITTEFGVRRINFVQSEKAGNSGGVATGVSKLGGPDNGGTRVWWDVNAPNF
Description: isothermal titration calorimetry on CusDI

CusDII = target: T2, CusDII (Flavobacterium johnsoniae, UniProt A5FB55); test: isothermal titration calorimetry; assay type: binding; conditions: 20 mM HEPES, 100 mM NaCl, pH 7.0, 25 °C; independent site model
T2 construct: gene Fjoh_4561; residues 26-505 (crystal construct 35-505), signal peptide removed, N-terminal His tag removed with TEV, E. coli Rosetta(DE3) pLysS
T2 sequence (A5FB55 26-505): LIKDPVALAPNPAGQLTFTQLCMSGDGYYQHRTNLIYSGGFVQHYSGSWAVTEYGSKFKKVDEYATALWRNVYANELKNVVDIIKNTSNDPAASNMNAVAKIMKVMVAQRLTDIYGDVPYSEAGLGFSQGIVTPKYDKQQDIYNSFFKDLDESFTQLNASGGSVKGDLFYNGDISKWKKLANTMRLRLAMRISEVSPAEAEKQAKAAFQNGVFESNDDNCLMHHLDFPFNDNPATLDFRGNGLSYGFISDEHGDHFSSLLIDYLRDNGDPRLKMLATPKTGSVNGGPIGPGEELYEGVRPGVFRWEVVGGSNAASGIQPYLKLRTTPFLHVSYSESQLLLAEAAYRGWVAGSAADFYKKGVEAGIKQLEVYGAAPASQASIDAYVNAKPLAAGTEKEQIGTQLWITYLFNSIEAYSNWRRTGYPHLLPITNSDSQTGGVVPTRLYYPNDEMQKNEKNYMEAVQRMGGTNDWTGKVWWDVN
Description: isothermal titration calorimetry on CusDII

Row | Compound | Kd (CusDI) [µM] | Kd (CusDII) [µM] | other results
1 | CC(=O)N[C@H]1[C@H](O[C@H]2[C@H](O)[C@@H](NC(C)=O)C(O)O[C@@H]2CO)O[C@H](CO)[C@@H](O)[C@@H]1O (some centres unmarked) [Chitobiose] | 25.6 ± 2.3 |  | 
2 | CC(=O)N[C@H]1[C@H](O[C@H]2[C@H](O)[C@@H](NC(C)=O)C(O)O[C@@H]2CO)O[C@H](CO)[C@@H](O[C@@H]2O[C@H](CO)[C@@H](O[C@@H]3O[C@H](CO)[C@@H](O)[C@H](O)[C@H]3NC(C)=O)[C@H](O)[C@H]2NC(C)=O)[C@@H]1O (some centres unmarked) [Chitotetraose] |  |  | Kd (CusDI; single titration): 38.3 ± 4.3 µM
3 | CC(=O)N[C@H]1[C@H](O[C@H]2[C@H](O)[C@@H](NC(C)=O)C(O)O[C@@H]2CO)O[C@H](CO)[C@@H](O[C@@H]2O[C@H](CO)[C@@H](O)[C@H](O)[C@H]2NC(C)=O)[C@@H]1O (some centres unmarked) [Chitotriose] | 8.51 ± 0.51 |  | 
4 | CC(=O)N[C@H]1C(O)O[C@H](CO)[C@@H](O)[C@@H]1O (some centres unmarked) [GlcNAc] |  |  | Kd (CusDI; n constrained to 1): 1470 ± 210 µM

The next lines start with results.

Row | Kd (CusDI) [µM] | Kd (CusDII) [µM] | Compound | other results
5 | 16.1 ± 0.42 | 41.2 ± 1 | CC(=O)N[C@H]1[C@H](O[C@H]2[C@H](O)[C@@H](NC(C)=O)[C@H](O[C@H]3[C@H](O)[C@@H](NC(C)=O)C(O)O[C@@H]3CO)O[C@@H]2CO)O[C@H](CO)[C@@H](O[C@@H]2O[C@H](CO)[C@@H](O[C@@H]3O[C@H](CO)[C@@H](O[C@@H]4O[C@H](CO)[C@@H](O)[C@H](O)[C@H]4NC(C)=O)[C@H](O)[C@H]3NC(C)=O)[C@H](O)[C@H]2NC(C)=O)[C@@H]1O (some centres unmarked) [Chitohexaose] | 
6 | 12.8 ± 0.21 | 236 ± 8 | CC(=O)N[C@H]1[C@H](O[C@H]2[C@H](O)[C@@H](NC(C)=O)[C@H](O[C@H]3[C@H](O)[C@@H](NC(C)=O)C(O)O[C@@H]3CO)O[C@@H]2CO)O[C@H](CO)[C@@H](O[C@@H]2O[C@H](CO)[C@@H](O[C@@H]3O[C@H](CO)[C@@H](O)[C@H](O)[C@H]3NC(C)=O)[C@H](O)[C@H]2NC(C)=O)[C@@H]1O (some centres unmarked) [Chitopentaose] | 
